Measured values: patent US9914750B2, “Synthetic peptides and peptide mimetics” (University of Louisville Research Foundation, priority 2007, dated 2018)
Entries after “also recorded” stand apart in the source; their conditions may differ. No end group written: not given here.

Assays:
[1] = system: sheep red blood cells; assay: Hemagglutination assay; type: cell-based; details: PBS, absence of serum, 2 h
Protocol: FIG. 22: Hemagglutination of sheep red blood cells. RBCs were washed in PBS and incubated for 2 h in microtiter plates in PBS±5% fetal calf serum. Peptide concentrations were 83 μg/ml. The microtiter plate was imaged. Agglutinated red blood cells form a wide mat of cells, while non-agglutinated cells form a button shaped pellet.
Briefly, unmodified sheep erythrocytes (Cappel, M P Biomedicals, Irvine, Calif.) were washed in PBS and suspended at 1% in PBS. Diluted erythrocytes and 20 μg/ml of each peptide in PBS were mixed in polypropylene microtiter plates (120 μl per well) and incubated for 2 h at 35° C. The plates were imaged on a Kodak Image station.

[2] = preliminary results; mice I.P. injection
[3] = system: C57BL/6 mice; assay: LPS sepsis model, D-galactosamine sensitized mice; type: in vivo
Protocol: FIG. 18. GL-13 Protects Mice in an LPS Sepsis Model. C57BL/6 mice were sensitized with D-galactosamine and injected with 100 ng/mouse (50 μg/kg) of P. aeruginosa LPS that had been preincubated for 1 h RT with or without 100 μg/mouse of GL-13. Controls received LPS and 0.9% saline. […] The results are from two independent experiments.
C57BL/6 mice were sensitized with D-galactosamine and injected with 100 ng/mouse (50 μg/kg) of P. aeruginosa LPS that had been preincubated for 1 h RT with or without 100 μg/mouse of GL-13 (FIG. 18). Controls received LPS and 0.9% saline. […] The results are from two independent experiments.

[4] = system: RAW 264.7 cells; assay: Assay for inflammation: TNFα secretion with peptides alone (ELISA); type: cell-based, mouse
Protocol: FIGS. 15A and 15B. FIG. 15A. Inhibition of endotoxin-stimulated TNFα secretion. RAW 264.7 macrophage cells were stimulated with 100 ng/ml LPS in the presence or absence of the PSP-derived peptides GK7, KL11 or GL13 (200 μg/ml). Polymyxin B (PMX) was used as a positive control. Further controls consisted of peptides alone without LPS stimulation. TNFα secretion was analyzed by ELISA of the RAW culture medium. The data are from triplicate RAW culture dishes for each condition. *) different from LPS alone P<0.03, **) P<0.0002. FIG. 15B. Dose response curve for the inhibition of LPS-induced TNFα secretion by GL-13.
To determine if the PSP peptides cause an inflammatory response in RAW 264.7 cells, the cells were incubated with each peptide for 24 h and TNFα secretion was quantitated by ELISA.
The vaccine adjuvant monophosphoryl lipid A (MPLA) a low-toxicity derivative of LPS was used to stimulate RAW cells in the presence or absence of PSP peptides (200 μg/ml) or the anti-inflammatory peptide polymyxin B (PMX). Control samples were incubated with the peptides alone.

[5] = system: RAW 264.7 cells; assay: Cell death assay, trypan blue; type: cell-based, mouse; details: 200 μg/ml, 24 h
Protocol: FIG. 21: RAW Cell Viability. RAW 264.7 cells were incubated with 200 μg/ml of PSP peptides for 24 h. At the end of the incubation period the cells were stained with trypan blue and photographed in the light microscope. No significant cell death was detected with any of the peptides.
The inventors have used three different assays for analysis of cytotoxicity in mammalian cells: trypan blue exclusion, […], and ATP production. Experiments have been performed with rat pituitary GH4C1 cells and mouse RAW 264.7 cells. The cells were incubated with PSP peptides for 24 h followed by staining with trypan blue to identify permeabilized and dead cells. […] Clear cytotoxicity was noted when the cells were incubated with LPS.
RAW 264.7 cells were incubated with 200 μg/ml of PSP peptides for 24 h. At the end of the incubation period the cells were stained with trypan blue and photographed in the light microscope. No significant cell death was detected with any of the peptides (FIG. 21).

GQIINLKASLDLL-NH2 [GL13-NH2, GQIINLKASLDLL-(CONH2)]
hemagglutination (words) [1]: caused passive hemagglutination | hemagglutination (words) ([1]; listed as GL-13-NH2): caused hemagglutination | toxicity [2]: low toxicity | lethality after intra-peritoneal injection [3]: did not cause lethality | TNFα secretion with peptide alone [4]: did not stimulate TNFα secretion | cell death of RAW 264.7 macrophages, trypan blue [5]: did not stimulate TNFα secretion or cause macrophage cell death; also recorded: did not cause cell death; also recorded: not cytotoxic to macrophages
